# According to US6737431B2 (Bristol-Myers Squibb Company, priority 2002, dated 2004):
# What was measured:
# [1] = molecular target: T1, melatonin ML1b receptor (Homo sapiens, UniProt P49286); assay: Melatonergic receptor binding, 2-[125I]-iodomelatonin, ML1b; details: NIH-3T3 membranes, 0.2 nM 2-[125I]-iodomelatonin, 37° C. 1 hour
# T1 construct: expressed in transfected cells; membrane homogenates
# T1 sequence (P49286 1-362): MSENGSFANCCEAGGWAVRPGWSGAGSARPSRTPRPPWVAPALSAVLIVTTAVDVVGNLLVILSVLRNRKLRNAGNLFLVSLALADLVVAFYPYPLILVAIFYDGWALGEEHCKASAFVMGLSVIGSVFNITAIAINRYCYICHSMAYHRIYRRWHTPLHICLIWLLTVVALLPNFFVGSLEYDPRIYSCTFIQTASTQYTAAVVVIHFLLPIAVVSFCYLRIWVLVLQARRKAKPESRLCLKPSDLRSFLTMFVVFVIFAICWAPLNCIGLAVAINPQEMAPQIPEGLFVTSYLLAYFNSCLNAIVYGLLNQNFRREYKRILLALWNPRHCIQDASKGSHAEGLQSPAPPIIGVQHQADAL
# Summary of the method: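 Membranes from NIH-3T3 cells stably expressing the human receptor, incubated with 0.2 nM 2-[125I]-iodomelatonin in Tris/MgCl2/EDTA buffer, pH 7.4, 1 h at 37° C. Nonspecific binding defined with 10^−5 M melatonin (final). Bound radioligand separated by filtration.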
# [2] = molecular target: T2, melatonin ML1a receptor (Homo sapiens, UniProt P48039); assay: Melatonergic receptor binding, 2-[125I]-iodomelatonin, ML1a; details: NIH-3T3 membranes, 0.1 nM 2-[125I]-iodomelatonin, 37° C. 1 hour
# T2 construct: expressed in transfected cells; membrane homogenates
# Summary of the method: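 Membranes from NIH-3T3 cells stably expressing human ML1a receptor were incubated 1 h at 37° C in Tris/MgCl2/EDTA buffer, pH 7.4, with 0.1 nM 2-[125I]-iodomelatonin. Nonspecific binding defined with 10^−5 M melatonin (final). Binding terminated by filtration with three washes.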
# T2 sequence (P48039 whole entry): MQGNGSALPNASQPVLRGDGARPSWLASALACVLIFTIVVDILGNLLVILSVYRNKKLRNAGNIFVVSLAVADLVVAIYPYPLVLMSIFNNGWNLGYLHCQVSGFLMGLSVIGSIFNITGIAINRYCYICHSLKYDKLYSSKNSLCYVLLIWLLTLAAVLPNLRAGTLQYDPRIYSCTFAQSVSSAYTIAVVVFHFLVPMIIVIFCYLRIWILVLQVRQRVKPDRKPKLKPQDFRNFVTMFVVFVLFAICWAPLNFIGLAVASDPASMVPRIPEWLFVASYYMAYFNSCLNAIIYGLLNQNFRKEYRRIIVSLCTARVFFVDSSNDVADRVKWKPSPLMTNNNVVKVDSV
Compound,IC50 ([1]; Table III) [nM],IC50 ([2]; Table III) [nM],IC50 ([1]; Table II) [nM],IC50 ([2]; Table II) [nM],also measured
"CC(=O)NCCCc1cccc2nc(-c3ccccc3)oc12 [Example 19, N-[3-(2-Phenylbenzoxazol-7-yl)propyl]acetamide]",–,–,–,–,IC50 ([1]; Table I): 10 to 250 nM; IC50 ([2]; Table I): 10 to 250 nM
"Cc1nc2cccc(CCCNC(=O)C3CC3)c2o1 [Example 4, N-[3-(2-Methyl-7-benzoxazolyl)propyl]cyclopropanecarboxamide]",–,–,–,–,IC50 ([1]; Table I): < 10 nM; IC50 ([2]; Table I): < 10 nM
"N-({(1R,2R)-2-[2-(Methylethyl)benzoxazol-7-yl]cyclopropyl}methyl)-3-methylbutanamide [Example 89]",< 10,< 10,–,–,–
"CCc1nc2cc(-c3ccccc3)cc(CCCNC(C)=O)c2o1 [Example 65, N-[3-(2-Ethyl-5-phenylbenzoxazol-7-yl)propyl]acetamide]",–,–,10 to 250,> 250,–
"CCc1nc2ccc(-c3ccc(C(F)(F)F)cc3)c(CCCNC(C)=O)c2o1 [Example 50, N-(3-{2-Ethyl-6-[4-(trifluoromethyl)phenyl]benzoxazol-7-yl}propyl)acetamide]",–,–,10 to 250,> 250,–
"CC(=O)NCCCc1cccc2ncoc12 [Example 31, N-(3-Benzoxazol-7-ylpropyl)acetamide]",–,–,–,–,IC50 ([1]; Table I): 10 to 250 nM; IC50 ([2]; Table I): 10 to 250 nM
"CCc1nc2cc(-c3ccc(F)cc3)cc(CCCNC(=O)C3CC3)c2o1 [Example 60, Cyclopropyl-N-{3-[2-ethyl-5-(4-fluorophenyl)benzoxazol-7-yl]propyl}carboxamide]",–,–,10 to 250,10 to 250,–
"CCc1nc2ccc(-c3ccc(OC)cc3)c(CCCNC(=O)C3CC3)c2o1 [Example 54, Cyclopropyl-N-{3-[2-ethyl-6-(4-methoxyphenyl)benzoxazol-7-yl]propyl}carboxamide]",–,–,10 to 250,> 250,–
"CCCC(=O)NCCCc1cccc2nc(CCC)oc12 [Example 15, N-[3-(2-Propylbenzoxazol-7-yl)propyl]butanamide]",–,–,–,–,IC50 ([1]; Table I): 10 to 250 nM; IC50 ([2]; Table I): > 250 nM
"CCc1nc2cccc([C@@H]3C[C@H]3CNC(C)=O)c2o1 [Example 76, N-{[(1R,2R)-2-(2-Ethylbenzoxazol-7-yl)cyclopropyl]methyl}acetamide]",< 10,< 10,–,–,–
"CCc1nc2cccc(CCCNC(=O)C(C)C)c2o1 [Example 10, N-[3-(2-Ethylbenzoxazol-7-yl)propyl]-2-methylpropanamide]",–,–,–,–,IC50 ([1]; Table I): 10 to 250 nM; IC50 ([2]; Table I): 10 to 250 nM
"CC(=O)NC[C@@H]1C[C@H]1c1cccc2nc(C(C)C)oc12 [Example 83, N-({(1R,2R)-2-[2-(Methylethyl)benzoxazol-7-yl]cyclopropyl}methyl)acetamide]",< 10,10 to 250,–,–,–
"CCc1nc2cc(-c3ccc(OC)cc3)cc(CCCNC(=O)c3ccccc3)c2o1 [Example 63, N-{3-[2-Ethyl-5-(4-methoxyphenyl)benzoxazol-7-yl]propyl}benzamide]",–,–,> 250,10 to 250,–
"CCCc1nc2cccc(CCCNC(=O)CC)c2o1 [Example 14, N-[3-(2-Propylbenzoxazol-7-yl)propyl]propanamide]",–,–,–,–,IC50 ([1]; Table I): 10 to 250 nM; IC50 ([2]; Table I): 10 to 250 nM
"CCCC(=O)NCCCc1cccc2nc(CC)oc12 [Example 9, N-[3-(2-Ethylbenzoxazol-7-yl)propyl]butanamide]",–,–,–,–,IC50 ([1]; Table I): < 10 nM; IC50 ([2]; Table I): 10 to 250 nM
"CCc1nc2cc(-c3ccc(F)cc3)cc(CCCNC(C)=O)c2o1 [Example 58, N-[3-(2-Ethyl-5-(4-fluorophenyl)benzoxazol-7-yl)propyl]acetamide]",–,–,10 to 250,10 to 250,–
"CCc1nc2cccc([C@@H]3C[C@H]3CNC(=O)C3CC3)c2o1 [Example 80, N-{[(1R,2R)-2-(2-Ethylbenzoxazol-7-yl)cyclopropyl]methyl}cyclopropylcarboxamide]",< 10,< 10,–,–,–
"CCc1nc2ccc(C)c(CCCNC(=O)c3ccccc3)c2o1 [Example 45, N-[3-(2-Ethyl-6-methylbenzoxazol-7-yl)propyl]benzamide]",–,–,10 to 250,10 to 250,–
"N-({(1R,2R)-2-[2-(5-Phenylbutyl)benzoxazol-7-yl]cyclopropyl}methyl)butanamide [Example 96]",< 10,< 10,–,–,–
"C=Cc1cc(CCCNC(=O)c2ccccc2)c2oc(CC)nc2c1 [Example 71, N-[3-(2-Ethyl-5-vinylbenzoxazol-7-yl)propyl]benzamide]",–,–,> 250,> 250,–
"CCc1nc2cc(-c3ccccc3)cc(CCCNC(=O)c3ccccc3)c2o1 [Example 66, N-[3-(2-Ethyl-5-phenylbenzoxazol-7-yl)propyl]benzamide]",–,–,> 250,> 250,–
"CCc1nc2ccc(Br)c(CCCNC(C)=O)c2o1 [Example 42, N-Acetyl-7-(3-aminopropyl)-6-bromo-2-ethylbenzoxazole]",–,–,< 10,10 to 250,–
"CCNC(=O)NC[C@@H]1C[C@H]1c1cccc2nc(C(C)C)oc12 [Example 93, N-({(1R,2R)-2-[2-(Methylethyl)benzoxazol-7-yl]cyclopropyl}methyl)(ethylamino)carboxamide]",10 to 250,10 to 250,–,–,–
"N-({(1R,2R)-2-[2-(5-Phenylbutyl)benzoxazol-7-yl]cyclopropyl}methyl)cyclopropylcarboxamide [Example 98]",< 10,< 10,–,–,–
"N-({(1R,2R)-2-[2-(5-Phenylbutyl)benzoxazol-7-yl]cyclopropyl}methyl)propanamide [Example 95]",< 10,< 10,–,–,–
"CCc1nc2cc(Br)cc(CCCNC(=O)C3CC3)c2o1 [Example 70, N-[3-(5-Bromo-2-ethylbenzoxazol-7-yl)propyl]cyclopropylcarboxamide]",–,–,10 to 250,> 250,–
